What was measured:
Assay in all cases: relative viability (nuclei count vs DMSO), 5 days (fraction); higher = more cells survive
[1] = compound: CN(C)CC1=CC(=CC=C1)N=C(C2=CC=CC=C2)C3=C(NC4=C3C=CC(=C4)C(=O)N(C)C)O + CC(=O)c1c(C)c2cnc(Nc3ccc(N4CCNCC4)cn3)nc2n(C2CCCC2)c1=O [Palbociclib] (partner 0.5 µM)
Outline: (§1)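 Nuclei were stained with Hoechst during a one-step fixation (final 0.05% Triton X-100, 1% formaldehyde, 1 ug/ml Hoechst) carried out 5 days after dosing, then counted on 4× images. The cells, lung cancer lines in 1536-well plates, had been dosed by pin tool the day after seeding with one drug alone or a fixed anchor-drug dose plus five library-drug doses (not always all listed) in √10 steps. Relative viability is the nuclei count in treated wells divided by that in vehicle wells, and each value is the median of duplicate plates.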

[2] = compound: CN(C)CC1=CC(=CC=C1)N=C(C2=CC=CC=C2)C3=C(NC4=C3C=CC(=C4)C(=O)N(C)C)O + CCNC(=O)c1noc(-c2cc(C(C)C)c(O)cc2O)c1-c1ccc(CN2CCOCC2)cc1 [Luminespib] (partner 0.01 µM)
Outline: as §1

[3] = compound: CN(C)CC1=CC(=CC=C1)N=C(C2=CC=CC=C2)C3=C(NC4=C3C=CC(=C4)C(=O)N(C)C)O + COc1cccc2cc(-c3nc([C@H]4CC[C@H](C(=O)O)CC4)n4ncnc(N)c34)[nH]c12 [OSI-027] (partner 0.5 µM)
Outline: as §1

[4] = compound: CN(C)CC1=CC(=CC=C1)N=C(C2=CC=CC=C2)C3=C(NC4=C3C=CC(=C4)C(=O)N(C)C)O + CS(=O)(=O)N1CCN(Cc2cc3nc(-c4cccc5[nH]ncc45)nc(N4CCOCC4)c3s2)CC1 [Pictilisib] (partner 1 µM)
Outline: as §1

Cell Line | relative viability ([1]; first compound 0.08 µM) | relative viability ([1]; first compound 0.253 µM) | relative viability ([1]; first compound 0.8 µM) | relative viability ([1]; first compound 2.53 µM) | relative viability ([1]; first compound 8 µM) | relative viability ([2]; first compound 0.08 µM) | relative viability ([2]; first compound 0.253 µM) | relative viability ([2]; first compound 0.8 µM) | relative viability ([2]; first compound 2.53 µM) | relative viability ([2]; first compound 8 µM) | relative viability ([3]; first compound 0.08 µM) | relative viability ([3]; first compound 0.253 µM) | relative viability ([3]; first compound 0.8 µM) | relative viability ([3]; first compound 2.53 µM) | relative viability ([3]; first compound 8 µM) | relative viability ([4]; first compound 0.08 µM) | relative viability ([4]; first compound 0.253 µM) | relative viability ([4]; first compound 0.8 µM) | relative viability ([4]; first compound 2.53 µM) | relative viability ([4]; first compound 8 µM)
LU99A | 0.392 | 0.417 | 0.457 | 0.401 | 0.351 | 0.238 | 0.246 | 0.285 | 0.258 | 0.234 | 0.245 | 0.346 | 0.341 | 0.297 | 0.286 | 0.322 | 0.33 | 0.366 | 0.301 | 0.305
HCC-15 | 0.706 | 0.724 | 0.74 | 0.711 | 0.752 | 0.304 | 0.205 | 0.181 | 0.278 | 0.279 | 0.705 | 0.692 | 0.77 | 0.6 | 0.719 | 0.739 | 0.768 | 0.877 | 0.819 | 0.774
HCC-827 | 0.516 | 0.385 | 0.38 | 0.52 | 0.472 | 0.442 | 0.651 | 0.457 | 0.723 | 0.489 | 0.795 | 0.712 | 0.749 | 0.686 | 0.699 | 1 | 1.05 | 0.863 | 1.06 | 0.8
NCI-H1734 | 0.39 | 0.353 | 0.346 | 0.31 | 0.31 | 0.206 | 0.168 | 0.164 | 0.25 | 0.174 | 0.599 | 0.6 | 0.56 | 0.561 | 0.577 | 0.479 | 0.461 | 0.408 | 0.402 | 0.471
NCI-H3122 | 0.17 | 0.15 | 0.204 | 0.17 | 0.226 | 0.0882 | 0.0788 | 0.075 | 0.142 | 0.0907 | 1.01 | 0.962 | 1.41 | 1.06 | 0.933 | 0.664 | 0.55 | 0.643 | 0.698 | 0.746
PC-3 [JPC-3] | 0.543 | 0.573 | 0.534 | 0.557 | 0.602 | 0.705 | 0.69 | 0.707 | 0.751 | 0.695 | 0.718 | 0.792 | 0.73 | 0.802 | 0.746 | 0.613 | 0.88 | 0.655 | 0.76 | 0.829
NCI-H2087 | 0.233 | 0.236 | 0.214 | 0.289 | 0.263 | 0.164 | 0.197 | 0.232 | 0.167 | 0.172 | 0.552 | 0.668 | 0.569 | 0.542 | 0.367 | 0.963 | 0.786 | 0.926 | 0.848 | 0.806
201T | 0.331 | 0.346 | 0.341 | 0.384 | 0.352 | 1.06 | 0.993 | 1.01 | 1.05 | 0.802 | 0.737 | 0.736 | 0.762 | 0.586 | 0.584 | 0.674 | 0.709 | 0.681 | 0.662 | 0.675
NCI-H1993 | 0.63 | 0.615 | – | 0.75 | 0.592 | 0.817 | 0.796 | 0.748 | 0.939 | 0.924 | 0.529 | 0.581 | 0.567 | 0.531 | 0.598 | 0.826 | 0.86 | 0.98 | 0.799 | 0.768
NCI-H2085 | 0.452 | 0.492 | 0.476 | 0.5 | 0.559 | 0.591 | 0.533 | 0.477 | 0.527 | 0.404 | 0.856 | 1.15 | 0.582 | 0.955 | 0.768 | 0.386 | 0.479 | 0.414 | 0.448 | 0.493
BEN | 0.49 | 0.485 | 0.492 | 0.467 | 0.454 | 0.338 | 0.269 | 0.312 | 0.212 | 0.437 | 0.286 | 0.31 | 0.25 | 0.306 | 0.289 | 0.664 | 0.587 | 0.584 | 0.55 | 0.509
RERF-LC-KJ | 1.08 | 1.05 | 1.01 | 0.992 | 0.982 | 1.34 | 1.4 | 1.25 | 1.13 | 1.23 | 0.575 | 0.613 | 0.537 | 0.583 | 0.542 | 0.518 | 0.595 | 0.57 | 0.625 | 0.515
SK-MES-1 | 0.325 | 0.277 | 0.357 | 0.305 | 0.343 | 0.544 | 0.749 | 0.678 | 0.834 | 0.521 | 0.618 | 0.689 | 0.635 | 0.534 | 0.533 | 0.301 | 0.316 | 0.368 | 0.332 | 0.249
PC-14 | 0.474 | 0.412 | 0.635 | 0.614 | 0.537 | 0.206 | 0.131 | 0.146 | 0.145 | 0.102 | 0.913 | 0.85 | 0.968 | 0.734 | 0.563 | 0.698 | 0.608 | 0.63 | 0.591 | 0.662
NCI-H1563 | – | – | – | – | – | 0.49 | 0.467 | 0.538 | 0.576 | 0.495 | 0.723 | 0.811 | 0.775 | 0.766 | 0.708 | 0.72 | 0.637 | 0.613 | 0.638 | 0.617
NCI-H2009 | 0.165 | 0.236 | 0.258 | 0.198 | 0.192 | 1.04 | 0.999 | 1.11 | 0.96 | 1.05 | 0.507 | 0.693 | 0.764 | 0.616 | 0.467 | 0.792 | 0.766 | 0.795 | 0.803 | 0.541

Reference: the supplement of paper PMC10307832
